Assay results as given in patent US6168809A, “Alkaline-earth metal salt for the treatment of ocular or palpebral pruritus and dysesthesia” (Societe l'Oreal S.A., priority 1995, dated 2001).

What was measured:
release of substance P = release of substance P caused by antidromic stimulation of the sciatic nerve, visualized by Evans blue staining; type: in vivo
From the text: The test consisted in determining the activity of various compounds on the release of substance P, which is caused by antidromic stimulation of the sciatic nerve. This release is visualized by staining with a stain (Evans blue). The greater the quantity of substance P released, the more intense the colour. In other words, the greater the inhibitory effect of the substance P antagonist on this release, the less intense the colour.

[1] = test system: TNF-alpha secretion by human monocytes (line U937); experiment: inhibition of secretion of TNF-alpha induced by PMA in human monocytes (line U937); type: cell-based; conditions: for % inhibition of secretion of TNF-alpha induced by PMA: PMA 10 nM, 48 hours, 37° C., mean of 3 measurements; for inhibition of TNF-alpha: in words
Method: This test is performed on human monocytes (line U937) stimulated by a phorbol ester (PMA) according to the method described by Schindler et al. (Correlations and interactions in the production of interleukin-6 (IL-6), IL-1, and Tumor Necrosis Factor (TNF) in human blood mononuclear cells: IL-6 suppresses IL-1 and TNF. Blood 75: 40-47 (1990)).
The phorbol ester (PMA) naturally stimulates the synthesis and/or the secretion of TNF-alpha by human monocytes in culture.
The activity of the molecules is evaluated according to their capacity to reduce or even suppress this TNF-alpha secretion.
The cells (monocytes) are incubated in the presence of PMA at the concentration of 10 nM for 48 hours at 37° C. The quantities of TNF-alpha secreted are quantified by immunoenzymatic assay (ECA) with the aid of commercially available kits.
Each molecule is tested at 3 different concentrations (10^-5, 10^-4 and 10^-3 M) and in each experiment, a reference molecule (dexamethasone) is studied at 7 concentrations as internal standard.
The results are expressed as percentage of inhibition relative to the positive control (without test molecule) after subtracting the background noise. A recapitulative table groups together the mean inhibitory effects obtained with the compounds. (The results are expressed as % inhibition; they are the mean of 3 measurements).

Compound	% inhibition relative to the control (release of substance P; Table 2, 3 μmol)	% inhibition of secretion of TNF-alpha induced by PMA ([1]; 10^-3 M)	% inhibition of secretion of TNF-alpha induced by PMA ([1]; 10^-4 M)	inhibition of TNF-alpha [1]	inhibitory activity on the release of substance P (release of substance P; Table 1, in words, salts at the same concentration)	inhibitory activity on the release of substance P (release of substance P; Table 2, in words, calcium salt at a higher concentration level)	% inhibition of secretion of TNF-alpha induced by PMA ([1]; 10^-5 M)
O=[N+]([O-])[O-].O=[N+]([O-])[O-].[Sr+2] [Sr(NO3)2, strontium nitrate]	71%	75%	28%	inhibitors of TNF-alpha	–	–	–
O=[N+]([O-])[O-].O=[N+]([O-])[O-].[Ca+2] [Ca(NO3)2, calcium nitrate]	–	–	–	–	no activity at all	no activity at all	–
[Ca+2].[Cl-].[Cl-] [CaCL2.7H2 O, calcium chloride]	–	67%	22%	inhibitors of TNF-alpha	–	–	19%
[Cl-].[Cl-].[Sr+2] [SrCl2, strontium chloride]	–	–	–	inhibitors of TNF-alpha	–	–	–
[Cl-].[Cl-].[Mg+2] [Mg Cl2, magnesium chloride]	–	70%	12%	inhibitors of TNF-alpha	–	–	–
O.O.O.O.O.O.O.[Cl-].[Cl-].[Sr+2] [SrCl2 7H2O]	–	54%	–	–	–	–	14%
